Data reported in the supplement of paper PMC6965134.
± gives the standard deviation of the averaged measurements.

Assay: TIMS collisional cross section (CCS, N2) of the lipid ion; higher = larger ion cross section
Conditions: ionization mode: positive, one isomer drawn

Row | TIMS collisional cross section (sample type: HeLa) | TIMS collisional cross section (sample type: Liver) | TIMS collisional cross section (sample type: plasma) | SMILES
1 | 285.5 Å² | 285.6 Å² |  | CC/C=C\C/C=C\C/C=C\C/C=C\C/C=C\C/C=C\CCC(=O)O[C@H](COC(=O)CCCCCCCCCCCCCCCCC)COP(=O)(O)OCCN [PE 18:0_22:6] (ion (formula + adduct): [C45H78NO8P+H] 1+)
2 |  | 338.2 Å² |  | CCCCC/C=C\C/C=C\CCCCCCCC(=O)OC[C@H](COC(=O)CCCCCCCCC/C=C\CCCCCCCCCC)OC(=O)CCCCCCC/C=C\CCCCCCCCC [TG 18:2_19:1_22:1] (ion (formula + adduct): [C62H112O6+NH4] 1+)
3 | 315.8 Å² |  |  | CCCCCC/C=C\CCCCCCCC(=O)O[C@H](COC(=O)CCCCCCCCCCCCCCC)COC(=O)CCCCCCCCCCCCCCCC [TG 16:0_16:1_17:0] (ion (formula + adduct): [C52H98O6+NH4] 1+)
4 |  | 314.3 Å² |  | CCCCCCCCCCCCCCCCCC(=O)OC[C@@H](COC(=O)CCCCCCCCCCCCC)OC(=O)CCCCCCCCCCCCCCC [TG 14:0_16:0_18:0] (ion (formula + adduct): [C51H98O6+NH4] 1+)
5 | 293.9 Å² | 291.9 Å² |  | CCCC/C=C\CCCCCCCC(=O)O[C@@H](COC(=O)CCCCCCC/C=C\CCCCCC)COC(=O)CCCCCCCCCCCC [TG 13:0_14:1_16:1] (ion (formula + adduct): [C46H84O6+NH4] 1+)
6 | 314.8 Å² |  |  | CCCCCC/C=C\CCCCCCCC(=O)OC[C@H](COC(=O)CCCCCCC/C=C\CCCCCCC)OC(=O)CCCCCCC/C=C\CCCCCCC [TG 16:1_17:1_17:1] (ion (formula + adduct): [C53H96O6+NH4] 1+)
7 |  | 269.9 Å² |  | CC/C=C\C/C=C\C/C=C\CCCCCCCC(=O)O[C@H](COC(=O)CCCCCCCCCCCCCCC)COP(=O)(O)OCCN [PE 16:0_18:3@] (ion (formula + adduct): [C39H72NO8P+H] 1+)
8 |  |  | 299.8 Å² | CCCCCCCC/C=C\CCCCCCCCCCCCCC(=O)N[C@@H](COP(=O)([O-])OCC[N+](C)(C)C)[C@H](O)/C=C/CCCCCCCCCCC [SM d16:1_24:1@] (ion (formula + adduct): [C45H89N2O6P+H] 1+)
9 |  | 272.9 Å² | 273 Å² | CCCCC/C=C\C/C=C\CCCCCCCC(=O)O[C@H](COC(=O)CCCCCCCCCCCCCCC)COP(=O)(O)OCCN [PE 16:0_18:2] (ion (formula + adduct): [C39H74NO8P+H] 1+)
10 | 326 Å² | 327 Å² |  | CCCCCC/C=C\CCCCCCCC(=O)OC[C@H](COC(=O)CCCCCCCCC/C=C\CCCCCCCC)OC(=O)CCCCCCC/C=C\CCCCCCCC [TG 16:1_18:1_20:1] (ion (formula + adduct): [C57H104O6+NH4] 1+)
11 | 328.5 Å² |  |  | CC/C=C\C/C=C\C/C=C\C/C=C\C/C=C\CCCCCC(=O)OC[C@@H](COC(=O)CCCCCCCCCCCCCCC)OC(=O)CCCCCCC/C=C\CCCCCCCC [TG 16:0_18:1_22:5] (ion (formula + adduct): [C59H102O6+NH4] 1+)
12 | 226 Å² | 224.5 Å² | 225.13 ± 1.1 Å² | CCCCCC/C=C/CCCCCCCC(=O)OC[C@@H](O)COP(=O)([O-])OCC[N+](C)(C)C [LPC 16:1] (ion (formula + adduct): [C24H48NO7P+H] 1+)
13 |  |  | 300.7 Å² | CCCCC/C=C\C/C=C\C/C=C\C/C=C\CCCCCC(=O)O[C@H](COC(=O)CCCCCCCCCCCCCCCCC)COP(=O)([O-])OCC[N+](C)(C)C [PC 18:0@_22:4] (ion (formula + adduct): [C48H88NO8P+H] 1+)
